Entries after “also recorded” stand apart in the source; their conditions may differ.
Columns and labels:
[1] = test system: 13B2 hTERT, CT5.3 hTERT, HCA2 hTERT, MCF-7/6 and 4T1-Luc cells; assay: 3D CellTiter-Glo Cell Viability Assay (spheroids); assay type: cell-based; details: 3D spheroids; up to 100 μM; 48 h
Description: The half maximal inhibitory concentration (IC50) of A1 was evaluated using a CellTiter-Glo® 2.0 Cell Viability Assay (cat. no. G9243, Promega) and a CellTiter-Glo® 3D Cell Viability Assay (cat. no. G9681, Promega). 13B2 hTERT cells (2D: 2×10^5, 3D: 8×10^4) were plated in each well of a Nunc™ MicroWell™ 96-Well, Nunclon Delta-Treated, Flat-Bottom Microplate (cat. no. 167008, Thermo Fisher Scientific) for 2D experiments or 96-well ULA plate (cat. no. MS-9096UZ, S-bio) in a volume of 90 μL/well. A1 was serially diluted in the appropriate medium to 10× the final concentrations. For each treatment condition, 10 μL was added to 3 replicate wells (final concentrations ranging from 1-100 μM) and plates were incubated for 48 h.
The CellTiter-Glo Cell Viability Assay was performed according to manufacturer's instructions. Briefly, the plates and the CellTiter-Glo® Reagent were equilibrated to room temperature (RT). The CellTiter-Glo® Reagent was added to each well in a 1:1 (v/v) ratio. For 2D experiments, cell lysis was induced by placing the plates on an orbital shaker for 2 min, followed by stabilization of the luminescent signal for 10 min. […] Afterwards, the luminescence was measured using a Synergy™ HTX Multi-Mode Microplate Reader (BioTek). The IC50 value was determined using the Graphpad Prism software. […]

13B2 hTERT breast CAFs = assay: AFM spheroid stiffness, 13B2 hTERT breast CAFs; assay type: cell-based, human; details: for Young's modulus / spheroid stiffness: 1 μM, 48 h during spheroid formation
Text: It is well established that an increased tumor and ECM stiffness is associated with a negative prognosis as it promotes tumor growth, progression, therapy resistance, immunosuppression and metastasis. Stiffness is chiefly regulated by the action of the CAFs in the TME. Stiffness modulation is, therefore, a fitting read-out of activity in a screen for CAF modulators. To assess stiffness modulation, the stiffness of spheroids of CAF cells treated with test compounds was interrogated using atomic force microscopy (AFM) indentation and compared with untreated cells. AFM measurement of the stiffness (elasticity) of cells and spheroids is a technique well-known to those skilled in the art. AFM measures the force required to create a given deflection, this read-out is also known as the Young's modulus. AFM is widely used in biology and cancer research: altered physicochemical properties of live cells serve as a read-out of altered complex physiological processes.
U-shaped, 384-well ULA plates (cat. no. MS-9384UZ, S-bio) were seeded with a suspension of cell-specific culture media with cells. Cells were allowed to form spheroids for an appropriate time under treatment conditions before use in experiments. Cell culture dishes (cat. no. 734-2814, VWR) were filled with collagen gel and placed at 37° C. for an appropriate time to allow solidification. For each condition, spheroids were pooled in one cell culture dish. The medium was removed (stored at 37° C.) to promote attachment of the bottom of each spheroid to the collagen gel. The cell culture dishes were incubated at 37° C. After the incubation period, the stored medium was carefully (prevent detachment of spheroids) added to the dishes.
Mechanical measurements were performed using an atomic force microscope. To indent the spheroids an in-house made colloidal probe was used. Force curves were collected using an appropriate setpoint and probe speed (depending on the stiffness of the spheroids). On each spheroid multiple force curves were collected. Collected curves were then processed using the JPK DP software. Young's modulus was extracted from the force curves. All experiments were performed in biological triplicate.
To generate 3D cultures mimicking the complexity and pathophysiology of in vivo tumors, spheroids were used (cfr. point 4). Spheroids are considered to better simulate cellular heterogeneity, nutrient and oxygen gradients, cell-cell interactions, cell-matrix interactions, gene expression profiles, stromal interactions, therapeutic responses, multicellular resistance, drug penetration and anti-apoptotic signaling.

[2] = test system: human invasive MCF-7/6 mammary carcinoma cells; assay: Chick heart invasion (CHI) assay with MCF-7/6 aggregates; assay type: cell-based; details: MCF7/6, 192 h, lowest concentration at which an anti-invasive effect (histological grade I or II) was observed, 8 days, read-out: Lowest active concentration
Description: Chick heart invasion assays were performed as described earlier (Bracke et al. 2014). Precultured heart fragments of 9-day-old chicken embryos were confronted with MCF-7/6 aggregates on top of a semi-solid agar at 37° C. overnight, after which the confronting pairs were cultured in suspension for 8 days at 37° C., 10% CO2 in presence or absence of a test compound (in duplo). This procedure can also be performed with aggregates of 4T1-Luc cells, for which the suspension culture of the confronting pairs is performed for 3.5 days. All compounds were evaluated at 1 μM and 100 nM; depending on the outcome higher or lower concentrations were subsequently evaluated. Upon fixation in Bouin-Hollande, the cultures were dehydrated and embedded in paraffin. Sections of the confrontation cultures were stained with hematoxylin-eosin are blinded and scored by a trained person (Bracke et al., 2014).
In the chick heart invasion assay cancer cells are confronted with a fragment of normal tissue, so as not to neglect the contribution of the host tissue in the micro-ecosystem that governs tumor behavior. As such, precultured heart tissue fragments (PHFs), dissected from 9-day-old chicken embryos, may be confronted with aggregates of human invasive MCF-7/6 mammary carcinoma cells or other cells in the presence of a certain concentration of a test compound. After eight days for MCF-7/6, or another period depending on the cell type, the interaction between the cancer cells and the PHF is evaluated histologically and classified along a 5-grades subjective scale (Bracke et al. 2014). Grades III and IV are typical for invasion, while grades 0, I and II correspond to absence of invasion. Compounds that inhibit invasion of confronting cancer cells i.e. from III/IV to 0/I/II, are determined as anti-invasive. Possible alternative assays generally known in the art are the type I collagen invasion assay, wound healing assay and the matrigel invasion assay.
The chick heart invasion (CHI) assay is a phenotypic assay that confronts precultured heart tissue fragments (PHFs, ‘normal tissue’), obtained from 9-day-old chicken embryos, with aggregates of human invasive MCF-7/6 mammary carcinoma cells (Bracke et al. 2014). In the control situation, the MCF-7/6 cells encircle, invade and destroy the PHF over an 8-day period. Invasion in this assay is defined as the progressive occupation and destruction of the PHF by the MCF-7/6 cells. Three-dimensional reconstruction of this interaction is obtained by microscopic analysis of all consecutive histological sections of the culture. The read-out is an invasion score according to a 5-grades histological scale.
The CHI closely reproduces the temporal, spatial and histological invasion patterns in man. The co-culture set-up probes for effects on both tumor cells and host tissue, and thus interrogates potential pharmacological targets in either interaction partner. Its use of histological evaluation allows discerning anti-invasive action from cytotoxicity or other effects.
We have submitted flavones B1-B4, flavanones B5-B8 and the intermediate 2′-hydroxychalcones A9, All and A12 to the chick heart invasion assay using MCF-7/6 aggregates. All compounds were evaluated at 1 μM and 100 nM; depending on the outcome higher or lower concentrations were subsequently evaluated. […] This table also includes CHI data on chalcones A1, A2 and A5.

Structure (SMILES): COc1cc(C(=O)/C=C/c2ccc(F)cc2)cc(OC)c1OC [Compound A1, 3-(4-Fluorophenyl)-1-(3,4,5-trimethoxyphenyl)prop2-en-1-one]
- response of cells cultured as spheroids (viability) [1]: no response
- Young's modulus / spheroid stiffness, concentration range (13B2 hTERT breast CAFs; 30 nM-3 μM, 48 h): dose-response behavior
- Young's modulus / spheroid stiffness (13B2 hTERT breast CAFs): significant decrease; also recorded: active
- minimal effective concentration [2]: 0.01 µM

Structure (SMILES): COc1cc2oc(-c3ccc(F)cc3)cc(=O)c2c(OC)c1OC [Compound B1, 2-(4-Fluorophenyl)-5,6,7-trimethoxy-4H-chromen-4-one]
- response of cells cultured as spheroids (viability) [1]: no response
- Young's modulus / spheroid stiffness (13B2 hTERT breast CAFs): significant decrease; also recorded: active
- minimal effective concentration [2]: 0.01 µM
